Experiment [1] has as its system mouse model of rheumatoid arthritis. The following applies: in vivo; cited from earlier work.
Experiment [2] has as its system model of systemic lupus erythematosis. The following applies: in vivo; cited from earlier work.
For a further experiment, the system named is human B cells. Nature of the experiment: Human B cells proliferation stimulated by anti-IgM. Type of experiment: cell-based. The following applies: B-cell; anti-Human IgM + CD40L-LZ, 72 h, 3H thymidine. As to the method: Human B Cells Proliferation Stimulate by Anti-IgM
Isolate PBMCs from Leukopac or from human fresh blood. Isolate human B cells by using Miltenyi protocol and B cell isolation kit II.—human B cells were Purified by using AutoMacs.column.
Activation of Human B Cells
Use 96 well Flat bottom plate, plate 50000/well purified B cells in B cell proliferation medium (DMEM+5% FCS, 10 mM Hepes, 50 μM 2-mercaptoethanol); 150 μL medium contain 250 ng/mL CD40L-LZ recombinant protein (Amgen) and 2 μg/mL anti-Human IgM antibody (Jackson ImmunoReseach Lab.# 109-006-129), mixed with 50 μL B cell medium containing PI3K inhibitors and incubate 72 h at 37° C. incubator. After 72 h, pulse labeling B cells with 0.5-1 uCi/well ^3H thymidine for overnight ˜18 h, and harvest cell using TOM harvester.

The next experiment relates to protein kinases. The following applies: cited from earlier work.
The next experiment has as its target T1, p110δ (Homo sapiens, UniProt O00329).
T1 sequence (O00329 1-1044): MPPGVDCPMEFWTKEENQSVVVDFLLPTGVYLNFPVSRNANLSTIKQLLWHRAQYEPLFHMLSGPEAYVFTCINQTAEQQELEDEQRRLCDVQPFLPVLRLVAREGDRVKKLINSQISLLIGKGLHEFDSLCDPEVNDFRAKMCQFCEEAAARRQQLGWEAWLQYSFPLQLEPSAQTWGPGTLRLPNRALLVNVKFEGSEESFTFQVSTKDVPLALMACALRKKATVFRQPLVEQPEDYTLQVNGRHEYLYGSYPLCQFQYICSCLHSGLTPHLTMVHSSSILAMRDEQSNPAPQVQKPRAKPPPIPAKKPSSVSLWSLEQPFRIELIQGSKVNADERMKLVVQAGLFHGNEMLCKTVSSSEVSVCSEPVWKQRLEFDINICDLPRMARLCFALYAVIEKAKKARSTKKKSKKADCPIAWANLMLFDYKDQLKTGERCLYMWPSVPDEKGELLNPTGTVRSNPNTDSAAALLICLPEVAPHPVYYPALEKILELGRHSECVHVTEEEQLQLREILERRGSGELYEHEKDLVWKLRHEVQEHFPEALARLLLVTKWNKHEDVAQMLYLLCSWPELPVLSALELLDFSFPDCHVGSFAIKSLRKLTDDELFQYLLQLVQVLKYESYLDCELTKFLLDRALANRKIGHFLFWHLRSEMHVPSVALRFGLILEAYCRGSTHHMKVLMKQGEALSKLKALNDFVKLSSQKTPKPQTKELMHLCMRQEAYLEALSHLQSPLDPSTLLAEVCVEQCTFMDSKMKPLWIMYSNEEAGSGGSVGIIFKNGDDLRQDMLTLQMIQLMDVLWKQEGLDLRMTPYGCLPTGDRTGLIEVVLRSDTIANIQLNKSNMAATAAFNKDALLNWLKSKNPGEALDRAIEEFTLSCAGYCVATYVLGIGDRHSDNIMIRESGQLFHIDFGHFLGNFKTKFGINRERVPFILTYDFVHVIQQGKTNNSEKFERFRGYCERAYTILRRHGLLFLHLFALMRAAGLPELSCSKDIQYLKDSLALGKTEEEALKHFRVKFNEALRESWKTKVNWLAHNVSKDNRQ
The following applies: cited from earlier work.

The subject of another experiment is murine model of asthma. The following applies: ovalbumin-induced airway inflammation; cited from earlier work.

Consider `O=C1NC(=O)/C(=C\c2ccc3nccnc3c2)S1` [AS 605240], for which the “efficacy in mouse model of rheumatoid arthritis” value in experiment [1] is reported as “efficacious”. The “onset of disease in model of systemic lupus erythematosis” value in experiment [2] was “delay onset of disease”. In general, IC50 refers to the concentration needed to halve the response being measured. Turning to `Cc1nn([C@@H](C)c2cc3cccc(Cl)c3nc2-c2cccc(F)c2)c2ncnc(N)c12` [Example 23, 1-((S)-1-(8-chloro-2-(3-fluorophenyl)quinolin-3-yl)ethyl)-3-methyl-1H-pyrazolo[3,4-d]pyrimidin-4-amine], the IC50 in the experiment on human B cells is 1.57 nM.

For `Nc1ncnc2c1c(I)nn2Cc1cc2c(Cl)cccc2nc1-c1ccccc1Cl` [Example 25, 1-((5-Chloro-2-(2-chlorophenyl)quinolin-3-yl)methyl)-3-iodo-1H-pyrazolo-[3,4-d]pyrimidin-4-amine], in the experiment with human B cells, the IC50 was 93.4 nM. `Cn1cc(-c2nn(Cc3cc4c(Cl)cccc4nc3-c3ccccc3Cl)c3ncnc(N)c23)cn1` [Example 26, 1-((5-chloro-2-(2-chlorophenyl)quinolin-3-yl)methyl)-3-(1-methyl-1H-pyrazol-4-yl)-1H-pyrazolo[3,4-d]pyrimidin-4-amine]: in the experiment on human B cells, the IC50 worked out at 46.7 nM. Same read-out and setting: the result for `Cc1nn(Cc2cc3cccc(Cl)c3nc2-c2ccccc2C(F)(F)F)c2ncnc(N)c12` [Example 30, 1-((8-chloro-2-(2-(trifluoromethyl)phenyl)quinolin-3-yl)methyl)-3-methyl-1H-pyrazolo[3,4-d]pyrimidin-4-amine] reads 44.8 nM. As to `Cc1nn(Cc2cc3c(Cl)cccc3nc2-c2ccccc2C(F)(F)F)c2ncnc(N)c12` [Example 31, 1-((5-Chloro-2-(2-(trifluoromethyl)phenyl)quinolin-3-yl)methyl)-3-methyl-1H-pyrazolo[3,4-d]pyrimidin-4-amine], in the experiment on human B cells, the IC50 came to 136 nM. As to `Cc1ccccc1-n1c(Cn2cnc3c(N)ncnc32)nc2cccc(C)c2c1=O` [IC87114], the “activity against any protein kinases tested” value with protein kinases was “no activity”. Moreover, on p110δ, the “inhibition of p110δ” value was “high nanomolar range (triple digit)”. Moreover, in the experiment on murine model of asthma, the “inflammation and disease in murine model of asthma” value is “significantly ameliorate inflammation and disease”.

The values are drawn from US7919498B2, “Substituted pyrazolo[3,4-d]pyrimidines as PI3K inhibitors” (Amgen Inc., priority 2007, dated 2011).
